“And” between values parts separate entries of the source, which are not always exact repeats. Equal values may be shown once.
Assays:
[1] = test system: WT mice subjected to LAD ligation; experiment: Myocardial infarction by LAD coronary artery ligation after 14-day peptide infusion, infarct size by TTC; format: in vivo, mouse; conditions: 4 days post-MI, mean±SE
Excerpt: After 2 weeks of continuous peptide infusion, animals were re-anesthesized with i.p ketamine/xylazine and underwent permanent ligation of the proximal left anterior descending (LAD) coronary artery to generate an experimental myocardial infarction (MI), as previously described (Ohta et al. 2004), with the surgeon blinded to treatment groups. At day 4 post-MI, animals were sacrificed and hearts excised for measurement of infarct size (FIG. 1B). This timepoint allows accurate measurement of infarct area prior to onset of cardiac rupture events (Noyan-Ashraf et al. 2005)
Freshly excised hearts were washed twice in cold PBS to remove excess blood, and cut into 2 mm sections perpendicular to the long axis. The sections were incubated at 37° C. in 2% 2,3,5-triphenyltetrazolium chloride (TTC) for 15 min, after which they were washed with PBS and fixed in 4% paraformaldehyde for 1 h before image acquisition using a digital scanner. Image J software (NIH, USA) was used to measure infarct area (TTC unstained white area) and total left ventricle (LV) area. Measurements were performed by two independent investigators blinded to treatment groups, and percent infarct size was calculated as the average of both measurements (infarct area/total LV area×100%).

isolated WT mice hearts = experiment: Ex vivo I/R injury, LVDP in presence of soluble AC inhibitor KH7 or transmembrane AC inhibitor Ddox
Description: Male, 10-12 week old, C57BI/6 mice were anesthesized with i.p ketamine (100 mg/kg)/xylazine (10 mg/kg)/heparin (1000 IU/kg), and the heart excised quickly, cannulated through the aorta, and perfused retrogradely with Kreb's Heinslet buffer in a Langendorff apparatus as previously described (Ban et al. 2008). […] A small plastic balloon connected to a pressure transducer was inflated inside the LV to measure LV end systolic (LVESP) and end diastolic pressure (LVEDP) obtained from computer analysis (AcqKnowledge 3.7.1. Biopack System, Goleta, Calif.). LVEDP was maintained at 4-8 mm Hg throughout the experiment. After 20 min of equilibration to allow the balloon to adjust inside the LV, hearts were perfused with buffer for 20 min, followed by 20 min perfusion with peptide of interest (FIG. 1a). Global ischemia was then generated by clamping inflow to the heart for 30 min, after which reperfusion was reinstated for 40 min. In the untreated control group, hearts were perfused for a total of 40 min prior to ischemia. LV developed pressure (LVDP) was calculated by subtracting LVEDP from LVESP. Functional recovery of LV function was calculated as LVDP at the end of reperfusion as a percentage of LVDP prior to ischemia.

[2] = test system: mouse model of ischemic stroke; experiment: Mouse model of ischemic stroke after 28 days cerebral ventricle infusion
Description: Peptides corresponding to the C-terminal domain of GLP-1 as described herein including GLP-1(28-36)^amide are tested in a mouse model of ischemic stroke. GLP-1(28-36)^amide is infused via Alzet® osmotic mini pumps brain infusion kits, specialized for targeted infusion into cerebral ventricles. After 28 days of GLP-1(28-36)^amide infusion, stroke is generated, after which brain infarct sizes are determined by TTC staining.
Protein lysates from brain tissue are extracted and the expression of survival kinases is probed by Western blots.

[3] = test system: primary ventricular cardiomyoctyes isolated from neonatal WT mice; experiment: cAMP assay in neonatal mouse ventricular myocytes; format: cell-based; conditions: 30 nM, 10 min, IBMX 250 uM pretreatment, vs PBS or scrambled peptide
Description: (§1) Neonatal mouse ventricular myocytes (FIG. 9A) and atrial HL-1 myocyte cell lines (FIG. 9B) were pretreated with 250 uM IBMX for 30 min followed by treatment with GLP-1(28-36) and SCRAM(28-36) (30 nM each) or IPE and Forsk (10 uM each) or bicarbonate (25 mM) for 10 min. Cells were then lysed for measurement of cytoplasmic cAMP levels. Data represent mean±SE (n=3; triplicate wells for each replicate). After 24 h serum-deprivation, cells were pre-treated with the phosphodiesterase inhibitor IBMX (250 uM) for 30 min, after which the peptide of interest and/or vehicle PBS was added to the media to a final concentration of 30 nM for GLP-1 peptides and Exendin-4, and 10 uM for Isoproterenol and Forskolin. After 10 min drug treatment, cells were lysed and total intracellular cAMP release was measured using an enzymatic immunoassay kit (Cayman Chemicals, Mich.) as per manufacturer's protocol.

[4] = test system: Akt, Erk1/2, CREB and eNOS; experiment: Western blots of heart lysates from pre-treated mice; format: in vivo, mouse; conditions: organs collected on day 18, pre-treated hearts
Excerpt: Organs were collected on day 18 as shown in the experimental model set out in FIG. 1B and Western blots of heart lysates were processed.

[5] = test system: primary human coronary artery smooth muscle cells (hCSMCs); experiment: cAMP assay (enzymatic immunoassay) in hCSMCs; format: cell-based
Description: After 24 h serum-deprivation, cells were pre-treated with the phosphodiesterase inhibitor IBMX (250 uM) for 30 min, after which the peptide of interest and/or vehicle PBS was added to the media to a final concentration of 30 nM for GLP-1 peptides and Exendin-4, and 10 uM for Isoproterenol and Forskolin. After 10 min drug treatment, cells were lysed and total intracellular cAMP release was measured using an enzymatic immunoassay kit (Cayman Chemicals, Mich.) as per manufacturer's protocol.

HL-1 cells = experiment: cAMP assay in HL-1 atrial myocyte cell line; format: cell-based, mouse; conditions: HL-1 atrial cardiomyocyte cell line, 30 nM, 10 min, IBMX 250 uM pretreatment
Description: as §1

[6] = test system: isolated perfused hearts of WT mice; experiment: LDH release in coronary effluents of isolated perfused hearts undergoing I/R injury; design: species or system mouse; conditions: pretreatment 6 nmol/L, vs untreated control
Description: To further ascertain the protective actions of GLP-1(28-36)^amide, LDH release was measured in coronary effluents from the isolated perfused hearts as an indicator of cellular necrosis and death. […] Pretreatment with the GLP-1(28-36)^amide peptide therefore helps prevent cell death following an ischemic event and is useful for the treatment or prevention of ischemic tissue injury and ischemic heart disease.

[7] = 14-day pre-infusion 3.5 pmol/kg/min
[8] = 14-day pre-infusion 18.5 pmol/kg/min
[9] = with sAC inhibitor KH7 (2.4 uM)
[10] = with tmAC inhibitor Ddox (2,5 dideoxyadenosine, 12 uM)

| Substance | % LV infarct size [1, 7] | % LV infarct size [1, 8] | LVDP at the end of reperfusion (isolated WT mice hearts; [9]) [mmHg] | LVDP at the end of reperfusion (isolated WT mice hearts; [10]) [mmHg] | brain infarct size (TTC staining) ([2]; 28 days infusion into cerebral ventricles before stroke) | expression of survival kinases in brain tissue (Western blot) ([2]; mouse, in vivo) | cAMP response [3] | activation of Akt, Erk1/2, CREB and eNOS (Western blot of heart lysates) [4] | intracellular cAMP, dose dependence [5] | cAMP release in presence of tmAC inhibitor Ddox ([5]; Ddox 25 uM) | cAMP release in presence of sAC inhibitor KH7 ([5]; KH7 25 uM) | increase in cAMP release ([5]; without AC inhibitor) [fold] | intracellular cAMP release (HL-1 cells) | LDH release in coronary effluent [6] |
| --- | --- | --- | --- | --- | --- | --- | --- | --- | --- | --- | --- | --- | --- | --- |
| H-EGTFTSDVSSYLEGQAAKEFIAWLVKGR-NH2 [GLP-1(9-36)^amide] | 26.1±1.4% | – | – | – | – | – | – | – | – | – | – | – | – | – |
| H-AGKFWRILV-NH2 [SCRAM(28-36)^amide] | – | 32.4±1.8% | 36.4±5.2 | 37.6±5.3 | – | – | – | – | – | – | – | – | – | – |
| H-HAEGTFTSDVSSYLEGQAAKEFIAWLVKGR-NH2 [GLP-1(7-36)^amide] | 23.0±1.9% and 23.0% | – | 73.1±5.3 | 27.1±5.3 | – | – | – | – | – | – | – | – | – | – |
| H-FIAWLVKGR-NH2 [GLP-1(28-36)^amide] | – | 24.9±2.6% and 24.9±2.4% | 25.2±1.7 | 67.6±5.8 | smaller infarct sizes | upregulation of survival kinases | no cAMP response was detected | enhanced activation of Akt, Erk1/2, CREB and eNOS | dose-dependent increases in intracellular cAMP | did not prevent the increase in cAMP | abolished | 2 | no intracellular cAMP release | significantly lower concentration of LDH |

From patent US11033607B2, “Peptides and methods for preventing ischemic tissue injury” (University Health Network, priority 2012, dated 2021)
